How the values were obtained:
detached H460 cells = assay: Anoikis assay (viability under detachment, MTT); type: cell-based, human; conditions: H460, 1 and 2.5 μM, at 12 h (p < 0.01) and 24 h (p < 0.001)
Description: Anoikis, a detachment-induced apoptosis, is a mechanism to prevent metastasis, so resistance to anoikis enhances the potential of metastasis. To confirm that DH_31 induces anoikis, the detached H460 cells were treated with 1 and 2.5 μM of DH_31 for 6, 12, and 24 h.
MTT assay was conducted to ascertain cell viability after treatment with DH-31 under detachment conditions. H292 and H460 cells (5.0 × 10^3 cells per well) were seeded in ultra-low attachment 96-well plates and treated with different concentrations of DH_31 (0–2.5 μM) at 37 °C. At 0, 6, 12, and 24 h of incubation, the cell suspensions were transferred onto regular cell culture plates in growth medium to facilitate attachment. After 3 h, images of cells that survived anoikis and recovered their adherent growth ability were captured with a 10 × objective using an inverted microscope (Olympus IX51 with DP70; OlympusbAmerica Inc., Center valley, PA, USA). Then, the medium in each well was removed and replaced with 100 µL of MTT solution. Cell viability was assessed using MTT assay, following the manufacturers’ protocols. Anoikis resistance was calculated as a percentage compared with the control.

STAT3–ubiquitin complex = target: T1, STAT3–ubiquitin complex (Homo sapiens, UniProt P40763); assay: Immunoprecipitation and Western blot of STAT3–ubiquitin complex; type: cell-based; conditions: H460, 2.5 µM, 6 h, MG132 10 µM pretreatment, vs untreated cells
T1 construct: endogenous in cells; host or cells: NCI-H460 (ATCC HTB-177)
Description: To explore whether the reduction in total STAT3 protein after DH_31 treatments (as shown in Figure 5B–E) occurs at the mRNA or protein levels, we first investigated mRNA levels using Real-time qPCR. […] To evaluate whether DH_31 affects STAT3 stability, pretreatment with MG132, a potent selective proteasome inhibitor, was performed. H460 cells were pretreated with or without MG132 (10 μM) for 1 h and then cells were either treated with DH_31 for 6 h or left untreated. […] The proteasome can recognize and degrade protein targets that are conjugated by single or poly-ubiquitin molecules. To investigate the ubiquitination level of STAT3 with DH_31 treatments, the ubiquitination level was evaluated using immunoprecipitation and Western blot analysis of the STAT3–ubiquitin complex in the lung cancer cells treated with DH_31 and in untreated cells.
Immunoprecipitation assay was performed to investigate ubiquitin–proteasomal degradation, shedding light on the regulatory mechanisms involved. H460 cells (4.0 × 10^5 cells per well) were seeded in 6-well plates. Following overnight incubation, the cells were pretreated with 10 μM of a proteasome inhibitor, MG132, for 1 h to prevent proteasomal degradation, and then were treated with different concentrations of DH_31 (0–2.5 μM) for 6 h. After treatment, the cells were lysed as described above. […]

T1 sequence (P40763 2-770 limits assumed, one chain of several): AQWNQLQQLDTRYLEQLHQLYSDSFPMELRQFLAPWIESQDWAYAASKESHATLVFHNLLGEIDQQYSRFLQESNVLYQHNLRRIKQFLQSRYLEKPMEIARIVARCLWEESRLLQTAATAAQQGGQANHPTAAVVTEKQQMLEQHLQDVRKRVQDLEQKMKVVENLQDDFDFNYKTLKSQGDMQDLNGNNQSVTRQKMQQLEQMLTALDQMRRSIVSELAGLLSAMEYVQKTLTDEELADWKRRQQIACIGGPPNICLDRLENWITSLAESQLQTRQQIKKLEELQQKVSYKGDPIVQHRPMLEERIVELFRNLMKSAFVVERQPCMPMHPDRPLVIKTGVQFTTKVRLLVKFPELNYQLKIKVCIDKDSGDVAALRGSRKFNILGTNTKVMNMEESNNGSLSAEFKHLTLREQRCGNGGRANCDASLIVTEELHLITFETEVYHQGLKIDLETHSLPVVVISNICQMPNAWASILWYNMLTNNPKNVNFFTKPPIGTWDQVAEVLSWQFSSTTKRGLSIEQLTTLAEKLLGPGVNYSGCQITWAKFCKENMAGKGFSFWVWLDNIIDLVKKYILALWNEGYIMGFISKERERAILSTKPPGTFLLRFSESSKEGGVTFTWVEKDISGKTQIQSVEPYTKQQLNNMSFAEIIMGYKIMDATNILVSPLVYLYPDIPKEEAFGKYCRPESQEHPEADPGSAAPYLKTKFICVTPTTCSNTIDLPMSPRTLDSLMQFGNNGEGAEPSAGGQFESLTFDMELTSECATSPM

Structure (SMILES): COc1c(C)cc2c(c1O)[C@@H]1CN(Cc3ccc4ccccc4c3)[C@@H](C#N)[C@H](C2)N1C [DH_31, (1R,4R,5S)-10-hydroxy-9-methoxy-8,11-dimethyl-3-(naphthalen-2-ylmethyl)-1,2,3,4,5,6-hexahydro-1,5-epiminobenzo[d]azocine-4-carbonitrile]
- cell viability of detached cells (anoikis) (detached H460 cells): significant decrease
- STAT3–ubiquitin formation (STAT3–ubiquitin complex): significantly enhanced

Source: article PMC11355573, “A New Renieramycin T Right-Half Analog as a Small Molecule Degrader of STAT3” (Marine Drugs, 2024)
